The values that follow come from patent US8183364B2, “Substituted porphyrins” (Duke University, priority 2004, dated 2012).

Each structure is given as a SMILES string. Entries after “also recorded” stand apart in the source; their conditions may differ. Marks after values point to notes of the source that are not given here.

Data set [1] can be described thus: Oxidative degradation in the presence of ascorbic acid under aerobic conditions. It counts as physicochemical. The note with it: pH 7.8 (0.05 M tris buffer). How it is done: Under these conditions porphyrins underwent oxidative degradation. As previously observed (Batinic-Haberle et al, J. Chem. Soc., Dalton Trans., pgs. 2689-2696 (2002)), those porphyrins that are of more positive E1/2 are stabilized in +2 oxidation state and are less prone to oxidative damage. Accordingly, 27% and 24% of MnTE-2-PyP^5+ and MnTMOE-2-PyP^5+ undergo degradation within 2 hours, but only 2% of MnTM,MOE-2-ImP^5+ and MnTDMOE-2-ImP^5+ and 3% of MnTDE-2-ImP^5+.

Data set [2] in a line: Kinetic salt effect on O2.^− dismutation by cytochrome c assay. It counts as biochemical. The note with it: for slope of log kcat vs μ^1/2/(1+μ^1/2): 0.05 M phosphate buffer, pH 7.8, 0-0.4 M NaCl. Here is the method:
Kinetic salt effect. The dependence of the catalytic rate constant for the O2.^− dismutation upon ionic strength was determined by cytochrome c assay (McCord and Fridovich, J. Biol. Chem. 244:6049 (1969)) in 0.05 M phosphate buffer, pH 7.8 with NaCl ranging from 0 to 0.4 M. In doing this, the effect of ionic strength on the rate of the O2.^−/cytochrome c reaction was corrected for.
Kinetic salt effect. The effect of the ionic strength (μ) on the catalytic rate constant was assessed using eq which is based on Debye-Huckel relation (Hambright et al, J. Porphyrins Phthalocyanines 7:139-146 (2003)) for the effect of the ionic strength of the solution on the activity coefficient of an ion. log k=log kref+2AzAzBμ^1/2/(1+μ^1/2) The k is the rate constant at any given ionic strength, while kref is the rate constant at μ=0. The A is a collection of physical constants with a value of 0.509 and zA and zB are the charges of the reacting species. The equation predicts a linear plot of log k vs μ^1/2/(1+μ^1/2). Eq assumes a coefficient of 1.0 (βai) for μ^1/2 in the denominator, i.e., the distance of the closest approach, ai to be 3 A and β is a physical constant, […]. It is doubtful whether great significance can be attributed to the ai, thus to the product zAzB (Hambright et al, J. Porphyrins Phthalocyanines 7:139-146 (2003)), especially so in the light of the bulkiness, high charge and solvation shell of the metalloporphyrins. Accounting for the mono- and diprotonated phosphates as the major species at pH 7.8 (pKa=7.2), and the concentration of the NaCl, the ionic strength was calculated using equation μ=½ Σ mizi^2 where mi is the molality and zi the charge of the given ion.
The slopes of the plots are −6.48 (MnTE-2-PyP^5+), −7.02 (MnTMOE-2-PyP^5+), −7.38 (MnTDMOE-2-ImP^5+), and −4.15 (MnTnBu-2-PyP^5+). As expected (Hambright et al, J. Porphyrins Phthalocyanines 7:139-146 (2003)), when the reactants are ions of opposite charges, the higher the ionic strength of the solution the lower the rate constants, i.e. the slopes are negative. The slopes of the plots indicate clearly the impact of the local dielectric constant on the kcat. The kcat of the most lipophilic compound, MnTnBu-2-PyP^5+ is 40% less sensitive to the changes in ionic strength of the solution than is the kcat of its methoxyethyl analogue, MnTMOE-2-PyP^5+.

Data set [3] has as its system SOD-deficient JI132 E. coli. Nature of the data set: Aerobic growth of SOD-deficient E. coli. It counts as cell-based. Here is the method: (§1) Aerobic growth of E. coli. Bacterial strains of E. coli used were wild type AB1157 (F-thr-1 leu-1 proA2 his-4 argE3 thr-1 lacY1 galK2 rpsL supE44 ara-14 xyl-15 mtl-1 tsx-33) and SOD-deficient JI132 (same as AB1157 plus (sodA::mudPR13)25 (sodB-kan)1-Δ2. Culture media were prepared as follows. M9 medium: 6 g/L Na2HPO4, 3 g/L KH2PO4, 0.5 g/L NaCl, 1 g/L NH4Cl, 2 mM MgSO4, 0.1 mM CaCl2, adjusted to pH 7.4 with NaOH, and supplemented with 0.2% glucose, 3 mg/L each of D-panthotenic acid and thiamine. M9CA medium contained M9 medium plus 0.2% casamino acids. 5-amino acid (5AA) minimal medium contained M9 medium plus 0.5 mM each of threonine, leucine, histidine, proline and arginine (Faulkner et al, J. Biocl. Chem. 269:23471 (1994)).
(§2) AB 1157 and 31132 were precultured overnight aerobically in M9CA medium at 37° C. and were then diluted to 3×10^7 cells/mL into 5 mL M9CA medium. JI132 was precultured in the presence of 20 μg/mL chloramphenicol and 500 μg/mL kanamycin. When the cells are transferred from M9CA medium to 5AA minimal medium cultures were first centrifuged and washed twice with the 5AA medium before final dilution in it. The centrifugation was conducted at room temperature to avoid temperature shocks. Cultures without and with Mn porphyrins (0.1 to 30 μM) were grown aerobically in 5 mL volume in test tubes in a thermostated orbital shaker (45° angle, 200 rpm) at 37° C.). Rates of growth were followed turbidimetrically at 700 nm to minimize interference from the absorbance of test compounds.

The conditions of data set [4]: Mn(III)/Mn(II); 0.1 M NaCl, 0.05 M phosphate buffer, pH 7.8; data from Batinic-Haberle et al 2002; cited from earlier work.
The conditions of data set [5]: pH 7.8, (22 ± 1) °C; data from Batinic-Haberle et al 2002 (MnTE-2-PyP: Inorg. Chem. 40:726 (2001)); cited from earlier work.
The conditions of data set [6]: data from Batinic-Haberle et al 2002, cited from earlier work; for Rf (compound path/solvent path), metal-free porphyrin (in parenthesis): metal-free ligand of the named Mn porphyrin; for Rf (compound path/solvent path), Mn complex: silica gel TLC, KNO3-saturated H2O/H2O/acetonitrile = 1/1/8.
Data set [7] is described as follows: Electrochemistry: cyclic voltammetry of the Mn(III)/Mn(II) redox couple. It counts as physicochemical. The note with it: difference vs MnTE-2-PyP^5+ (+228 mV vs NHE). Here is the method:
Electrochemistry. Measurements were performed on a CH Instruments Model 600 Voltammetric Analyzer (Spasojevic and Batinic-Haberle, Inorg. Chim. Acta. 317:230-242 (2001), Batinic-Haberle et al, J. Biol. Chem. 273:24521-24528 (1998), Batinic-Haberle et al, Inorg. Chem. 38:4011-4022 (1999)). A three-electrode system in a small volume cell (0.5 mL to 3 mL), with a 3 mm-diameter glassy carbon button working electrode (Bioanalytical Systems), plus the Ag/AgCl reference and Pt auxiliary electrodes was used. Argon-purged solutions contained 0.05 M phosphate buffer, pH 7.8, 0.1 M NaCl, and 0.5 mM metalloporphyrin. The scan rates were 0.01-0.5 V/s, typically 0.1 V/s. The potentials were standardized against the potassium ferrocyanide/ferricyanide (Kolthof and Tomsicek, J. Phys. Chem. 39:945 (1935)) and/or against MnTE-2-PyP^5+ (Spasojevic and Batinic-Haberle, Inorg. Chim. Acta. 317:230-242 (2001), Batinic-Haberle et al, J. Biol. Chem. 273:24521-24528 (1998), Batinic-Haberle et al, Inorg. Chem. 38:4011-4022 (1999)).
Electrochemistry. All cyclic voltammograms, ascribed to the Mn(III)/Mn(II) redox couple, are reversible. The E1/2 of di-ortho ethylimidazolylporphyrin, MnTDE-2-ImP^5+ is 118 mV more positive than of ortho ethylpyridylporphyrin, MnTE-2-PyP^5+ (+228 mV vs NHE), as a consequence of charge delocalization. A similar difference of 114 mV was seen between their methoxyethyl analogues. Mn porphyrins bearing N-pyridyl substituents of the same length, MnTnBu-PyP^5+ and MnTMOE-2-PyP^5+, have nearly identical E1/2 of +254 and +251 mV vs NHE, which is 26 and 23 mV higher than that of MnTE-PyP^5+.

A further data set relates to wild type AB1157 E. coli. Put plainly: Aerobic growth of wild type E. coli (toxicity). In kind it is cell-based. As to conditions: for toxicity to wild type E. coli / concentration at which toxicity on the parental (wild type) strain is exerted / becomes observable: M9CA medium; for toxicity to wild type E. coli: 30 μM (up to 30 μM); for concentration at which toxicity on the parental (wild type) strain is exerted / becomes observable: range 0.1 to 30 μM; for growth of wild type E. coli: 5AA minimal medium. How it is done: as §1, §2

The conditions of data set [8]: previously observed (Batinic-Haberle et al 2002), compared with imidazolyl porphyrins; cited from earlier work.

Consider `CC[n+]1ccccc1-c1c2nc(c(-c3cccc[n+]3CC)c3ccc([n-]3)c(-c3cccc[n+]3CC)c3nc(c(-c4cccc[n+]4CC)c4ccc1[n-]4)C=C3)C=C2.[Mn+3]` [MnTE-2-PyP^5+], for which the “degradation within 2 hours” value in data set [1] is recorded as 27%. In addition, the “slope of log kcat vs μ^1/2/(1+μ^1/2)” value in data set [2] is listed as −6.48. Moreover, the “aerobic growth of SOD-deficient E. coli” value in [3] (5AA minimal medium, 25 μM) is listed as “most effective”. The “protection of SOD-deficient E. coli” value in data set [3] (M9CA medium, 1 μM) is on record as “low protection”. Further, in data set [3] (M9CA medium, 30 μM), the “protection of SOD-deficient E. coli” value was “either much higher or near full protection”. In [3] (M9CA medium, 1-30 μM), the “facilitation of aerobic growth of SOD-deficient E. coli, dependence on concentration” value is listed as “concentration-dependent manner”. In addition, the “Metal-centered redox potential E1/2” value in data set [4] is recorded as “+228 mV vs NHE”. Also, the “log kcat for O2^− dismutation” value in data set [5] is listed as 7.73^e. For the same molecule, in [6], the “Rf (compound path/solvent path), metal-free porphyrin (in parenthesis)” value is reported as 0.21 and the “Rf (compound path/solvent path), Mn complex” value is given as 0.13.
With `CCCC[n+]1ccccc1-c1c2nc(c(-c3cccc[n+]3CCCC)c3ccc([n-]3)c(-c3cccc[n+]3CCCC)c3nc(c(-c4cccc[n+]4CCCC)c4ccc1[n-]4)C=C3)C=C2.[Mn+3]` [MnTnBu-2-PyP^5+], in data set [7], the “E1/2 more positive / higher than that of MnTE-2-PyP^5+” value is on record as 26 mV. For the same molecule, the “slope of log kcat vs μ^1/2/(1+μ^1/2)” value in data set [2] is listed as −4.15. For the same molecule, the “kcat less sensitive to changes in ionic strength than MnTMOE-2-PyP^5+” value in [2] (vs MnTMOE-2-PyP^5+) worked out at 40%. The “aerobic growth of SOD-deficient E. coli” value in data set [3] (5AA minimal medium, 3 μM) is given as “nearly as effective”. Moreover, the “aerobic growth of SOD-deficient E. coli” value in data set [3] (M9CA medium, 1 and 3 μM) was “less effective”. Further, the “aerobic growth of SOD-deficient E. coli” value in data set [3] (M9CA medium, 10 and 30 μM) was “most effective”. Further, in the data set on wild type AB1157 E. coli, the “toxicity to wild type E. coli” value is listed as “only marginal toxicity” and the “concentration at which toxicity on the parental (wild type) strain is exerted / becomes observable” value is 30 µM. For the same molecule, the “Metal-centered redox potential E1/2” value in [4] was “+254 mV vs NHE”. Also, the “log kcat for O2^− dismutation” value in data set [5] is listed as 7.25. Further, in data set [6], the “Rf (compound path/solvent path), metal-free porphyrin (in parenthesis)” value was 0.46 and the “Rf (compound path/solvent path), Mn complex” value is on record as 0.33.
With `CCCCCC[n+]1ccccc1-c1c2nc(c(-c3cccc[n+]3CCCCCC)c3ccc([n-]3)c(-c3cccc[n+]3CCCCCC)c3nc(c(-c4cccc[n+]4CCCCCC)c4ccc1[n-]4)C=C3)C=C2.[Mn+3]` [MnTnHex-2-PyP^5+], the “aerobic growth of SOD-deficient E. coli” value in data set [3] (5AA minimal medium, 3 μM) is reported as “most effective”; in data set [3] (5AA minimal medium, 25 μM), “failed to do so”; in data set [3] (M9CA medium, 1 and 3 μM) it was “most effective”; in data set [3] (M9CA medium, 10 and 30 μM), “progressively less effective”. For the same molecule, the “protection of SOD-deficient E. coli at 0.3 μM compared with 10 μM methyl, ethyl (and MnTDMOE-2-ImP) porphyrins” value in data set [3] (M9CA medium, 0.3 μM, listed as n-hexyl) is recorded as “equally protective; also recorded: the same level of protection”. Further, the “toxicity to E. coli at 100-fold lower concentration” value in the data set with wild type AB1157 E. coli (0.3 μM) was “mostly eliminated”. The “growth of wild type E. coli” value with wild type AB1157 E. coli (3 μM) was “slowed the growth”; in the data set with wild type AB1157 E. coli (up to 25 μM), “toxic”. Further, the “toxicity to wild type E. coli” value with wild type AB1157 E. coli (listed as n-hexyl) was “prevented wild type E. coli to grow; also recorded: prevent wild type E. coli from growing”. Further, in the data set with wild type AB1157 E. coli, the “concentration at which toxicity on the parental (wild type) strain is exerted / becomes observable” value worked out at 3 µM. Further, in data set [4], the “Metal-centered redox potential E1/2” value is given as “+314 mV vs NHE”. Further, the “log kcat for O2^− dismutation” value in data set [5] is recorded as 7.48. In [6], the “Rf (compound path/solvent path), metal-free porphyrin (in parenthesis)” value was 0.63. In [6], the “Rf (compound path/solvent path), Mn complex” value is 0.57. Also, the “stability towards oxidative degradation” value in data set [8] is on record as “same level of stability”.
